According to publication PMC8037182, “Solvothermal Synthesis of Multiple Dihydropyrimidinones at a Time as Inhibitors of Eg5” (Molecules, 2021):

Molecular target: T1, Eg5 motor protein (Homo sapiens, UniProt P52732)
T1 construct: Eg5 motor domain (amino acids 1-368) was cloned into pET22b; His-tag (C); made in house; host or cells: Escherichia coli BL21 (DE3)
T1 sequence (P52732 1-368): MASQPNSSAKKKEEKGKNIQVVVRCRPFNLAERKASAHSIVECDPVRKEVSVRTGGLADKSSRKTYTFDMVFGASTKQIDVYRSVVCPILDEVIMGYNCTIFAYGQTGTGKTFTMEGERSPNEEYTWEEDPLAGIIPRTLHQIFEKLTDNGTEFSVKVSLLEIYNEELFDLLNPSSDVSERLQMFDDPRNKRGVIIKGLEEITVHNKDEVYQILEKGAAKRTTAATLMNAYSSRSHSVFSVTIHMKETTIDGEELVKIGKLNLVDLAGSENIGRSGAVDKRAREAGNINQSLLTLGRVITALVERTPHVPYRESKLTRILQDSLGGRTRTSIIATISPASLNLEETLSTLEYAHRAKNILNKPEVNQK
Experiment: microtubule-activated Eg5 motor protein ATPase assay (malachite green, OD630)
Type: biochemical
Details: for IC50: microtubule-stimulated KSP ATPase activity
Procedure: Eg5 motor domain (amino acids 1-368) was cloned into pET22b and expressed in Escherichia coli BL21 (DE3) cells.
Tubulin was purified from pig brain, as described in the literature, and stored at −60 °C in BRB80 (80 mM K-Pipes, pH 6.8, 1 mM EGTA, 1 mM MgCl2). Before the assay of Eg5 ATPase, microtubules were assembled in the presence of paclitaxel and were then separated from unassembled tubulin by centrifugation as described in the literature.
Inhibitory activities of the compounds were measured using a microtubule-activated ATPase assay. The compounds, paclitaxel stabilized microtubules, Eg5 motor protein and BRB80 were added to wells of a 96-well plate in a total reaction volume of 38.5 μL. Reactions were started by the addition of 522.11 μM ATP in a total reaction volume of 98.5 μL, incubated at 37 °C for 30 min and terminated by the addition of 15 μL of perchloric acid. The mixture was centrifuged (10,000 rpm) 10 min at room temperature. The supernatant from this centrifugation step was mixed with HCl 1 M, 33 mM malachite green, 775 mM ammonium molybdate tetrahydrate. After 10 min the absorbance was measured at 630 nm using a microplate reader (BIO-RAD iMark^TM). […] Monastrol was used as the positive control. All conditions were performed in three independent duplicate experiments and averaged data points are shown as mean values ± SD, IC50 values were calculated with SPSS17.0 software. The primary data were shown in Supplementary Materials Tables S1–S3.
A sequence of human Eg5 corresponding to amino acids 1 to 368 was amplified with polymerase chain reaction (PCR) by NOVOPRO BIOSCIENCE INC. It was cloned into pET22b introducing a C-terminal His-tag. The protein was expressed in Escherichia coli BL21 (DE3) cells for 12 h at 25 ℃ in LB containing 1mM Isopropyl-beta-D-thiogalactopyranoside (IPTG), 50 ug/ml Ampicillin. The harvested cells were lysed with Ultrasonic Processor in Binder-buffer (50 mM Tris-HCl, 350 mM NaCl, 10 mM Imidazole, pH 8.0). The clarified lysate was loaded onto a Ni-IDA -Sepharose CL-6B Affi Gel column (Sigma), washed with Washing-buffer(20 mM Tris-HCl, 350 mM NaCl, 20 mM Imidazole, pH 8.0) untill effluent OD280 value reaches baseline. Then it was eluted with Elution-buffer (20 mM Tris-HCl, 350 mM NaCl , 250 mM Imidazole, pH8.0). The buffer was exchanged to 150 mM NaCl, 20mM Tris pH 8.0 by dialysis. The protein concentration was adjusted to 2 mg/ml (measured by a Bradford assay using bovine serum albumin (BSA) as standard). Eg5368H was stored at -20 ℃.
Pig brains were cleaned of blood clots with kitchen paper, weighed, and transferred to a Waring blender. Cold (4 ℃) depolymerization buffer (DB) was added at a ratio of 1 liter/kg of brain tissue. The mixture was homogenized twice for approximately 30 s. The homogenates were then centrifuged in a SLA 1500 Sorvall rotor at 29,000g for 60 min at 4 ℃. The supernatants were pooled and supplemented with an equal volume of warm (37 ℃) high-molarity PIPES buffer (HMPB), ATP (1.5 mM final), and GTP (0.5 mM final). An equal volume (1/3 of the final volume) of pre-warmed to 37 ℃ anhydrous glycerol was added to this solution. This mixture was incubated in a 37 ℃ water bath for 1 h. The polymerized tubulin was then centrifuged in a Ti 45 Beckman rotor at 151,000g (44,000 rpm) for 30 min at 37 ℃. The resulting microtubule pellets were resuspended in 100 ml of cold DB and left for 30 min on ice. The depolymerized tubulinwas subsequently centrifuged in a Ti 45 Beckman rotor at 70,000g (30,000 rpm) for 30 min at 4 ℃. The supernatant from this centrifugation step was mixed with an equal volume of the HMPB supplemented with ATP and GTP, followed by the addition of glycerol (1/3 of the final volume) as described above. The mixture was incubated in a 37 ℃ water bath for 30 min, and the polymerized tubulin was pelleted in a Ti 45 Beckman rotor at 151,000g (44,000 rpm) for 30 min at 37 ℃. […]

Compound | OD630 Value Mean (compound 24.24 uM) | OD630 Value Mean (compound 30.3 uM) | OD630 Value Mean (compound 60.61 uM) | OD630 Value Mean (compound 80.81 uM) | OD630 Value Mean (compound 90.91 uM) | OD630 Value Mean (compound 121.21 uM) | IC50 | OD630 Value Mean (compound 25.38 uM) | OD630 Value Mean (compound 50.76 uM) | OD630 Value Mean (compound 67.68 uM) | OD630 Value Mean (compound 76.14 uM) | OD630 Value Mean (compound 101.52 uM) | OD630 Value Mean (compound 20.2 uM) | OD630 Value Mean (compound 40.41 uM) | OD630 Value Mean (compound 53.87 uM) | OD630 Value Mean (compound 107.74 uM)
CCOc1ccccc1C1NC(=S)NC(C)=C1C(=O)Nc1ccc(Cl)cc1 (stereo not shown) [C9] | 0.221 | 0.182 | 0.163 | 0.157 | 0.156 | 0.14 | 30.2 µM |  |  |  |  |  |  |  |  | 
CCOC(=O)c1c(C2NC(=O)NC(C)=C2C(=O)Nc2ccccc2OC)[nH]c(C(=O)OC)c1C (stereo not shown) [D1] |  |  |  |  |  |  | 38.7 µM | 0.26 | 0.248 | 0.195 | 0.189 | 0.159 |  |  |  | 
CCOC(=O)c1c(C2NC(=O)NC(C)=C2C(=O)Nc2ccccc2C)[nH]c(C(=O)OC)c1C (stereo not shown) [D2] |  |  | 0.219 | 0.137 |  |  | 67.3 µM |  |  |  |  |  | 0.322 | 0.279 | 0.26 | 
CCOC(=O)c1[nH]c(C2NC(=O)NC(C)=C2C(=O)Nc2ccccc2OC)c(C(=O)OC)c1C (stereo not shown) [D3] | 0.218 | 0.182 | 0.146 |  | 0.122 | 0.115 | 53.6 µM |  |  |  |  |  |  |  |  | 
CCOC(=O)c1[nH]c(C2NC(=O)NC(C)=C2C(=O)Nc2ccccc2C)c(C(=O)OC)c1C (stereo not shown) [D4] | 0.198 | 0.174 | 0.158 |  | 0.148 | 0.134 | 71.3 µM |  |  |  |  |  |  |  |  | 
CCOC(=O)c1[nH]c(C2NC(=O)NC(C)=C2C(=O)Nc2ccc(Cl)cc2)c(C(=O)OCC)c1C (stereo not shown) [D7] |  | 0.231 | 0.197 | 0.164 | 0.158 | 0.146 | 63.2 µM |  |  |  |  |  |  |  |  | 
CCOC(=O)c1c(C2NC(=O)NC(C)=C2C(=O)Nc2ccccc2)[nH]c(C(=O)OC)c1C (stereo not shown) [D10] |  |  | 0.225 | 0.197 | 0.191 | 0.133 | 64.4 µM |  |  |  |  |  |  |  |  | 0.139
CCOC(=O)c1[nH]c(C2NC(=S)NC(C)=C2C(=O)OC)c(C(=O)OCC)c1C (stereo not shown) [D12] |  | 0.243 | 0.191 | 0.141 | 0.129 | 0.123 | 57.4 µM |  |  |  |  |  |  |  |  | 
COC(=O)c1[nH]c(C2NC(=S)NC(C)=C2C(=O)c2ccccc2)c(C(=O)OC)c1C (stereo not shown) [D14] |  | 0.25 | 0.187 | 0.151 | 0.138 | 0.14 | 71.9 µM |  |  |  |  |  |  |  |  | 
CCOC(=O)C1=C(C)NC(=S)NC1c1cccc(O)c1 (stereo not shown) [Monastrol, monastrol, reference compound] |  |  |  |  |  |  | 51.7 µM | 0.214 | 0.193 | 0.190 | 0.188 | 0.177 |  |  |  | 
